This test addresses NADH-dependent nitrate reductase ([Candida] boidinii, UniProt A0ACB5TRL5).

The text below walks through data of patent US5294539A, “Nitrate reductase from yeasts, the preparation and use thereof” (Merck Patent Gesellschaft mit beschrankter Haftung, priority 1990, dated 1994).

Molecules are shown by their SMILES.

NADH-dependent nitrate reductase, sequence (A0ACB5TRL5 entry or part of it): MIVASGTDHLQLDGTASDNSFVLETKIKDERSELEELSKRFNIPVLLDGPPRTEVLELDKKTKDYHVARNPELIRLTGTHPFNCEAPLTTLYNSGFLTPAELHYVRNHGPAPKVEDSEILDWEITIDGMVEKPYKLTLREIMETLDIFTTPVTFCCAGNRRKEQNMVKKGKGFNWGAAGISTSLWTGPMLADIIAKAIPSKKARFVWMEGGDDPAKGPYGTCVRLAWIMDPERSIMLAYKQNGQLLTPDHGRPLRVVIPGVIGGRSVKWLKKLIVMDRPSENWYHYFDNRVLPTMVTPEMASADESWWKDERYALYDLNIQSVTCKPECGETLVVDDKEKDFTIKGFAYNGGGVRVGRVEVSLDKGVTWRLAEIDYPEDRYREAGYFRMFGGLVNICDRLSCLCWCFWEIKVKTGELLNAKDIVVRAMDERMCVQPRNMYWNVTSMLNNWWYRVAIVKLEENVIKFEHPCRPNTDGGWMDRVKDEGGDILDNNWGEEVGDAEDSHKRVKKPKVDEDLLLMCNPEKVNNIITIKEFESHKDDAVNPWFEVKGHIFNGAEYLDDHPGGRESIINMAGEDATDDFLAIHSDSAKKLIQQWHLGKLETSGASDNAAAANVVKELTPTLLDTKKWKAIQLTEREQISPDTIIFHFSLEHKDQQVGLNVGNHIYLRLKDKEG

Take `O=NO` [nitrite]: the End-product inhibition result is “up to 50%”.
